Assay results taken from paper PMC11017246, “Discovery of GLPG2737, a Potent Type 2 Corrector of CFTR for the Treatment of Cystic Fibrosis in Combination with a Potentiator and a Type 1 Co-corrector” (Journal of Medicinal Chemistry, 2024).

Legend:
[1] = Liver microsomal stability, rat; assay type: in vitro ADME; conditions: liver microsomes; rat microsomes; calculated from measured fumic; read-out: Mic CLint,u rat (converted)
Experimental: (§1) The microsomal stability assay was performed by incubation of test compound at 1 μM, 0.2% DMSO in phosphate buffer with microsomes (0.5 mg/mL) from mouse, rat, dog, or human (Xeno-Tech, Kansas City, KS, USA), and cofactors with final concentrations of 0.6 U/mL glucose-6- phosphate dehydrogenase, 3.3 mM MgCl2, 3.3 mM glucose-6-phosphate, and 1.3 mM nicotinamide adenine dinucleotide phosphate (NADP)+. Before addition of the microsomes (time zero) and after 30 min of incubation at 37 °C with shaking, the reaction was stopped, and proteins were precipitated with an excess of acetonitrile containing an internal standard. The samples were mixed, centrifuged, and filtered, and the supernatant was analyzed by liquid chromatography–mass spectrometry/mass spectrometry (LC–MS/MS). The instrument responses (peak areas/IS peak areas) were referenced to the zero-time point samples (considered as 100%) to determine the percentage of compound remaining. In vitro unbound intrinsic clearance (CLint,u) was calculated from the half-life using the following equations: [drawing 1] [drawing 2] To take into account nonspecific binding, scaled CLint values were corrected with the fraction unbound in microsomes (fu, mic). [drawing 3]
(§2) Equilibrium dialysis is a technique used to measure microsomal binding. Briefly, the assay was performed in a 96-well Teflon dialysis unit (Dialysis Device), where each well consists of two chambers separated by a dialysis membrane (membrane strips, MW cutoff 12–14 kDa, HTDialysis). Inactivated liver microsomes (pooled human liver microsomes, Xenotech, protein concentration of 0.5 mg/mL) spiked with a compound (1 μM final concentration, 0.5% DMSO) were added to one chamber and buffer solution (50 mM PBS Buffer) was added to the other side of the well. Each compound was analyzed in duplicate for 4 h at 37 °C. At the end of incubation, both chambers were sampled and analyzed by LC-MS/MS. The unbound microsomal fraction (fu, mic) was calculated as the concentration in buffer divided by the total concentration in the microsomal side. Positive controls included in this assay are terfenadine and verapamil.

[2] = Hepatocyte stability, rat; assay type: in vitro ADME; conditions: read-out: Hep CLint,u rat (converted)
Experimental: (§3) The hepatocyte stability assay was performed by incubation of test compound at 1 μM, 0.03% DMSO in modified Krebs–Henseleit buffer with suspension of pooled cryopreserved hepatocytes (BioIVT, Hicksville, NY, USA) from mouse, rat, dog, or human (BioIVT, Hicksville, NY, USA) at 0.5 million viable hepatocytes/mL. Before adding the hepatocytes (time zero) and after 10, 20, 45, 90, 120, and 180 min of incubation (n = 2) at 37 °C while gently shaking, the reaction was stopped and proteins were precipitated with an excess of acetonitrile containing an internal standard. The samples were mixed, centrifuged, and filtered, and the supernatant was analyzed by liquid chromatography–mass spectrometry/mass spectrometry (LC–MS/MS). The instrument responses (peak areas/IS peak areas) were referenced to the zero-time point samples (considered as 100%) in order to determine the percentage of compound remaining.

[3] = target: T1, ΔF508 CFTR (Homo sapiens, UniProt P13569, DEL508-508); test: CSE-HRP: cell surface expression horseradish peroxidase assay in CFBE41o- cells; assay type: cell-based; conditions: no additional corrector; for Emax: CFBE41o-, relative to lumacaftor or 5 (3 μM) positive control, read-out: CSE-HRP % max activation; for EC50: 24 h incubation, 33 °C, geometric mean, read-out: CSE-HRP EC50
T1 construct: host or cells: CFBE41o- TetON cells, expression induced with doxycycline
T1 sequence (P13569 with tags, fused parts or gaps DEL508-508): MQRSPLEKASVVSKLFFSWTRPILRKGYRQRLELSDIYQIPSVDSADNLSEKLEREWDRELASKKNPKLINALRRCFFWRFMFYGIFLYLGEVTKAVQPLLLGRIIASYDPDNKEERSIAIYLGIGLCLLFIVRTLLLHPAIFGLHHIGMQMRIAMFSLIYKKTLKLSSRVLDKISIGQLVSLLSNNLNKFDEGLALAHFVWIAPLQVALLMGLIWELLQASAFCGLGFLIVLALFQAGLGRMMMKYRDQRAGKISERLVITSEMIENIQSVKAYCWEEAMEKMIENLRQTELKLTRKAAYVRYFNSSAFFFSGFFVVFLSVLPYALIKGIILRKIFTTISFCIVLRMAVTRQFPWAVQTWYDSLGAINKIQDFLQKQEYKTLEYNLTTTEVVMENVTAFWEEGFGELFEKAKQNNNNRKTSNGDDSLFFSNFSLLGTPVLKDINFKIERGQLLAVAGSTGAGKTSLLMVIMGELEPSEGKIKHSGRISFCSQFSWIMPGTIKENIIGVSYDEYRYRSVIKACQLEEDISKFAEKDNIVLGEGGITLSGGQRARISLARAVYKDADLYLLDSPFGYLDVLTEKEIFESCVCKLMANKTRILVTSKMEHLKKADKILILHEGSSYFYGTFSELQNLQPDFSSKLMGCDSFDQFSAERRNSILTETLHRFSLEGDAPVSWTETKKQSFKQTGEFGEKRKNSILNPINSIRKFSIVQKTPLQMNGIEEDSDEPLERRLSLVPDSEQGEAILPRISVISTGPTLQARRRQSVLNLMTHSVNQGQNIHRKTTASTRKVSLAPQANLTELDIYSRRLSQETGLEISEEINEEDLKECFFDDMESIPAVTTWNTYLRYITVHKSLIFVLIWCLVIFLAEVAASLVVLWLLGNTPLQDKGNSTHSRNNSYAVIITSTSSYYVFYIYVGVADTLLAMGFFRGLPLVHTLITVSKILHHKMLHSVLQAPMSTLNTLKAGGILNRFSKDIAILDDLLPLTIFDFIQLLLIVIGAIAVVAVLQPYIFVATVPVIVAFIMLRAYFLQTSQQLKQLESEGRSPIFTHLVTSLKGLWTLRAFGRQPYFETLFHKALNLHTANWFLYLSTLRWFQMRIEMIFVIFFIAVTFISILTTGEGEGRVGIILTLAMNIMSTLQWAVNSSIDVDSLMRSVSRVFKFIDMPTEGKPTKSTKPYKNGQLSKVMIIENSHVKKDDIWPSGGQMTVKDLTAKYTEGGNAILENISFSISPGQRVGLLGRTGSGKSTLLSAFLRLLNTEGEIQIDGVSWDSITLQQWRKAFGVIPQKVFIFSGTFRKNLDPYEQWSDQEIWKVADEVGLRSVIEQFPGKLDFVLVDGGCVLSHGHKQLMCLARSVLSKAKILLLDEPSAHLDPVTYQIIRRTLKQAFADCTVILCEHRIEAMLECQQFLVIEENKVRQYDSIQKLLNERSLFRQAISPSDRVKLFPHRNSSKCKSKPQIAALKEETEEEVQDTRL
Experimental: A CFBE41o– cell line stably expressing ΔF508 CFTR harboring an HRP-tag in the fourth extracellular loop was obtained from Professor Gergely Lukacs (Department of Physiology, McGill University, Montreal, QC, Canada).[25] Cells were grown in Eagle’s minimal essential medium (Life Technologies) supplemented with 10% FBS, 1% L-glutamine (Life Technologies), 10 mM HEPES (Life Technologies), 200 μg/mL Geneticin (Life Technologies), and 3 μg/mL puromycin (Sigma) in culture flasks coated with 0.01% bovine serum albumin (BSA) (Sigma), 30 μg/mL Purecol (Nutacon), and 0.001% human fibronectin (Sigma).
CFBE41o– TetON cells expressing HRP tagged ΔF508-CFTR were seeded in white 384-well plates (Greiner) at a density of 2000 cells per well. Medium containing 500 ng/mL doxycycline was used to induce expression of ΔF508-CFTR-HRP. After 3 days, cells were treated with corrector or potentiator compounds and transferred to an incubator at 33 °C. On day 4, cells were washed five times with PBS containing Ca^2+ and Mg^2+ using a Bio-Tek plate washer and incubated with a chemiluminescent HRP substrate (SuperSignal West Pico Chemiluminescent Substrate, Thermo Scientific) for 15 min. Chemiluminescence was measured using an Envision plate reader (PerkinElmer). Dose response data was fitted using a 4 parameter hill function of the form Response = neg control + (pos control – neg control)/(1 + 10^(log EC50-concentration)/HillSlope) to determine EC50 values. Percentage efficacy was calculated using the following formula: (max response – neg control)/(C1 response – neg control).

[4] = Liver microsomal stability, human; assay type: in vitro ADME; conditions: liver microsomes; human microsomes; calculated from measured fumic; read-out: Mic CLint,u human (converted)
Experimental: as §1, §2

[5] = Hepatocyte stability, human; assay type: in vitro ADME; conditions: human hepatocytes; read-out: Hep CLint,u human
Experimental: as §3

[6] = pooled cryopreserved hepatocytes in suspension

CLint scaled at 1 μM [1] [mL/min/kg]	CLint scaled at 1 μM [2, 6] [mL/min/kg]	Emax [3] [%]	EC50 [3] [µM]	CLint scaled at 1 μM [4] [mL/min/kg]	CLint scaled at 1 μM ([2]; rat hepatocytes) [mL/min/kg]	CLint scaled at 1 μM [5] [mL/min/kg]	SMILES
182	263	64	4.13	< 59.8	–	–	COc1ccc(-c2cc(C(=O)O)nc3c2c(C)nn3-c2ccc(C)cc2)cc1 [Compound 6]
180	305	95	2.48	173	–	–	COc1ccc(-c2cc(C(=O)O)nc3c2c(C)nn3-c2ccccc2)cc1 [Compound 7]
< 43.3	–	–	–	< 28.3	66.7	< 45.7	Cc1nn(-c2ccccc2)c2nc(C(=O)O)cc(-c3ccc(N4CCOCC4)cc3)c12 [Compound 8]
